Earlier results on 7 molecules are cited in patent publication EP4364951A1, “OVERCOAT INK AND INK SET CONTAINING SAME” (DNP Fine Chemicals Co., Ltd., priority 2021, dated 2023).

Molecules are shown by their SMILES.

The conditions of the data set: water-octanol, common logarithm.
Regarding `COC(C)CCO` (stereo not shown) [3-Methoxy-1-butanol], the Partition coefficient is recorded as 3-Methoxy -1-butanol (0.070).

In the case of `CC(O)CO` (stereo not shown) [1,2-Propanediol], the Partition coefficient is 1,2-Propanediol (-1.008).

`CCCC(O)CO` (stereo not shown) [1.2-Pentanediol]: the Partition coefficient is reported as 1.2-Pentanediol (0.011).

On to `CC(C)(O)CCO` [3-M ethyl-1,3-butanediol], for which the Partition coefficient was 3- M ethyl- 1,3- butanediol (-0.329).

On to `OCCCO` [1,3-Propanediol], for which the Partition coefficient was 1,3-Propanediol (-1.093).

Consider `CCC(O)CO` (stereo not shown) [1,2-Butanediol], for which the Partition coefficient is 1,2-Butanediol (-0.499).

In the case of `CCOCCOCCO` [Diethylene glycol monoethyl ether], the Partition coefficient result is “Diethylene glycol monoethyl ether (-0.421)”.
